Measurements reported in paper PMC6324813, “Biological evaluation of isoflavonoids from Genista halacsyi using estrogen-target cells: Activities of glucosides compared to aglycones” (PLoS ONE, 2019).
Where two headings read alike, the source gives them in different places.

Columns and labels:
ERα [1] = target: T1, ERα (Homo sapiens, UniProt P03372); design: purchased Invitrogen; conditions: cited from earlier work
T1 sequence (P03372 1-595): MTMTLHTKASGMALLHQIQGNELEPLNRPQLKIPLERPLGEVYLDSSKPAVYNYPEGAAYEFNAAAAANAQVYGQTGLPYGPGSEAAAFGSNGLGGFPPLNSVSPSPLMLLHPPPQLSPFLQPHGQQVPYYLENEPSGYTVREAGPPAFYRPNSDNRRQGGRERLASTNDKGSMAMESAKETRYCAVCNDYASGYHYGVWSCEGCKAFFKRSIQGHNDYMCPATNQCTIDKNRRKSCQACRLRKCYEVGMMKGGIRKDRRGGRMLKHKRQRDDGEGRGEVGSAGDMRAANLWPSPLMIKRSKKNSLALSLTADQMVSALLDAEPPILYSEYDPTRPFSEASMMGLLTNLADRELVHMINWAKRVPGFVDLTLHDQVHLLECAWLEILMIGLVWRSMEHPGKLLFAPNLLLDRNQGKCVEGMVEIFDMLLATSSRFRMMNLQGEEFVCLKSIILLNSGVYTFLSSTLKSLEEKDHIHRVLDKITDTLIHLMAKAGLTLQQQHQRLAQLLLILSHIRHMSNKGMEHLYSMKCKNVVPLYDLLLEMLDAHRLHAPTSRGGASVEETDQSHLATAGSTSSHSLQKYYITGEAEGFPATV

MCF-7 cells = assay: MCF-7 cell proliferation (MTT); format: cell-based, human; conditions: for activation at 1 µM: Homo sapiens, MCF7, 72 h, read-out: Induction of cell proliferation (MCF-7 cells) Agonism at 1μΜ (% of 0.1nM E2)
Procedure: Test compound effects on the proliferation of MCF-7 and MDA-MB-231 cells were assessed as previously described.

ERβ [2] = target: T2, ERβ (Homo sapiens, UniProt Q92731); assay: ERE-dependent luciferase gene transcription in HEK:ERβ cells; format: cell-based; design: expressed in transfected cells; host or cells: HEK-293 (HEK:ERβ clone, with pERE-tk-Luciferase)
Procedure: (§1) Assessment of ER/ERE-dependent luciferase gene transcription in MCF-7:D5L (express ERα) and HEK:ERβ cells (express ERβ) and determination of ER transcriptional agonism was carried as already described. Briefly, the cells were plated in 96-well plates at a density of 12,000 cells per well in phenol-red-free MEM (MCF-7:D5L cells) or phenol-red-free DMEM (HEK:ERβ cells) supplemented with 1 μg/mL insulin and 5% DCC-FBS. […] The AUC of the isoflavonoids of each group were then expressed as % of the AUC of the respective archetypal isoflavone. Since AUC data combine the efficacy as well as the potency of cell response into a single parameter, the %AUC data were considered here as a more reliable measure of relative ER/ERE-dependent luciferase expression of the test compounds.

Ishikawa cells = assay: Induction of AlkP expression in Ishikawa cells; format: cell-based, human; conditions: for Induction of Alkaline Phosphatase Expression (Ishikawa cells) AUC (%): % of AUC of luciferase response of archetypal 3, 4, 5 or 8 up to 0.3, 10, 1.0 and 3.0 μM; for Ratio of AUC (AlkP / Lucif): AUCAlkP / AUCluciferase; for EC (25% of 0.1 nM E2 effect) / activation at 1 µM / EC50: Homo sapiens, Ishikawa; for EC (25% of 0.1 nM E2 effect) / activation at 1 µM: 72 h; for EC (25% of 0.1 nM E2 effect): concentration required to achieve 25% of the effect of 0.1 nM E2, read-out: Induction of Alkaline Phosphatase Expression (Ishikawa cells) EC25E2; for activation at 1 µM: read-out: Induction of AlkP expression (Ishikawa cells) Agonism at 1μΜ (% of 0.1nM E2); for EC50: concentration required to achieve 50% of the effect of 0.1 nM E2, read-out: Induction of Alkaline Phosphatase Expression (Ishikawa cells) EC50E2
Procedure: Induction of AlkP expression of Ishikawa cells is considered as a reliable in vitro measure of estrogenic activity. Assessment of AlkP expression in Ishikawa cells was carried as already described. Briefly, the cells were plated in 96-well plates at a density of 12,000 cells per well in phenol-red-free MEM supplemented with 1 μg/mL insulin and 5% DCC-FBS. […] Data on the dependence of AlkP activity on isoflavonoid concentration were curve fitted using SigmaPlot10 (SPSS Inc) and the numerical data of curve fitting were used to determine AUC as described above, using for the calculation of AUC of a particular AlkP response the very same concentration used for the respective luciferase response. The AUC of AlkP responses of the isoflavonoids of a group were expressed as % of the AUC of the luciferase response of the respective archetypal isoflavone.

ERβ [3] = target: T2, ERβ; design: purchased Invitrogen; conditions: cited from earlier work
ERβ [4] = target: T2, ERβ; assay: ER binding competitor assay (fluorescent estrogen ES2), ERβ; design: purchased Invitrogen
ERα [5] = target: T1, ERα; assay: ERE-dependent luciferase gene transcription in MCF-7:D5L cells; format: cell-based; design: MCF-7:D5L cells, a clone of MCF-7 cells stably transfected with an Estrogen Response Element (ERE)-endowed reporter plasmid; endogenous in cells; host or cells: MCF-7:D5L (MCF-7 clone carrying pERE-Gl-Luciferase); conditions: for Induction of ERE-dependent Luciferase Transcription (MCF-7:D5L cells) AUC (%): % of AUC of luciferase response of archetypal 3, 4, 5 or 8 up to 0.3, 10, 1.0 and 3.0 μM; for Induction of luciferase gene transcription through ERα, MCF-7:D5L cells, Agonism at 1μΜ (% of 0.1nM E2): estradiol 0.1 nM; for Induction of ERE-dependent Luciferase Transcription (MCF-7:D5L cells) EC25E2: concentration required to achieve 25% of the effect of 0.1 nM E2; for EC50: concentration required to achieve 50% of the effect of 0.1 nM E2, read-out: Induction of ERE-dependent Luciferase Transcription (MCF-7:D5L cells) EC50E2
Procedure: as §1

ERα [6] = target: T1, ERα; assay: ER binding competitor assay (fluorescent estrogen ES2), ERα; design: purchased Invitrogen; conditions: RBA = (IC50 estradiol/IC50 compound) × 100; ES2 1 nM; estradiol set equal to 100
MDA-MB-231 cells = assay: MDA-MB-231 cell proliferation (MTT); format: cell-based; conditions: 0.1 nM estradiol, 1 μM ICI182,780, isoflavonoids 1 μM
Procedure: Test compound effects on the proliferation of MCF-7 and MDA-MB-231 cells were assessed as previously described. […] Relative numbers of cells exposed to estradiol or to ICI182,780 acted as positive and negative control, respectively.

TNFα mRNA = conditions: 1–10 μM, ER-independent; cited from earlier work
[7] = isoflavonoids 1 μM, statistically significant effects
[8] = 1 μM ICI182,780, isoflavonoids 1 μM

T2 sequence (Q92731 whole entry): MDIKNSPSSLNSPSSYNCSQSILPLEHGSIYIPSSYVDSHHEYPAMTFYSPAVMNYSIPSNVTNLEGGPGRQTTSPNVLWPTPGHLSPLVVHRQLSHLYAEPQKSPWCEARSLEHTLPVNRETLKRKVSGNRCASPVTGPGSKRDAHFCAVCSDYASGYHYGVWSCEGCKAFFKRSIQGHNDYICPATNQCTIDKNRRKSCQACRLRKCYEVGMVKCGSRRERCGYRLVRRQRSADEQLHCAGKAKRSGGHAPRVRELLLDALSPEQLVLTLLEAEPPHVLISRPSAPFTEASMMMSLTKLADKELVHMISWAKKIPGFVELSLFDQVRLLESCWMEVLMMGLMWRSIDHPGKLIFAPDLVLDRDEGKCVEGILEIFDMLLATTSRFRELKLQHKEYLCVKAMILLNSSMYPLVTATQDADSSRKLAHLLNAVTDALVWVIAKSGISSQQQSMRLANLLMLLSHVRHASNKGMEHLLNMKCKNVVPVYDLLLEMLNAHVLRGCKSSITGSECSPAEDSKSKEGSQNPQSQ

Structure (SMILES) | mean value (and the range) of previously reported RBAα (ERα [1]) | activation at 1 µM (MCF-7 cells) | Induction of Alkaline Phosphatase Expression (Ishikawa cells) AUC (%) (Ishikawa cells) | Ratio of AUC (AlkP / Lucif) (Ishikawa cells) | EC (25% of 0.1 nM E2 effect) (Ishikawa cells) | activation at 1 µM (Ishikawa cells) | EC50 (Ishikawa cells) | mean value (and the range) of previously reported RBAβ (ERβ [3]) | Induction of ERE-dependent Luciferase Transcription (MCF-7:D5L cells) AUC (%) (ERα [5]) | Induction of luciferase gene transcription through ERα, MCF-7:D5L cells, Agonism at 1μΜ (% of 0.1nM E2) (ERα [5]; compounds 1 μM, 18 h) | Induction of ERE-dependent Luciferase Transcription (MCF-7:D5L cells) EC25E2 (ERα [5]) | EC50 (ERα [5]) | other results
COc1ccc(-c2coc3cc(O)cc(O)c3c2=O)cc1 [Compound 1, Biochanin A] | 0.18 (0.02–0.34) | 70 ± 10% | 26±2 % | 0.79±0.04 | 0.19 ± 0.01 µM | 53 ± 9% | 420 ± 30 nM | 0.69 (0.18–1.20) | 33±8 % | 83 ± 16 (Full) % of 0.1nM E2 | 0.16 ± 0.09 µM | 300 ± 30 nM | activation at 1 µM (ERβ [2]; 18 h, read-out: Induction of luciferase gene transcription through ERβ, HEK:ERβ cells, Agonism at 1μΜ (% of 0.1nM E2)): 31 ± 15%; ERβ-dependent gene transcription agonist effect compared to the effect of 0.1 nM estradiol (ERβ [2]; [7]): lower than; AlkP-inducing agonist effect compared to the effect of 0.1 nM estradiol (Ishikawa cells; [7]): lower than; RBAβ / RBAα (ERβ [3]; ERβ-binding selectivity, ref 51 (Fokialakis et al.)): 3.83; selectivity for ERβ (class of RBAβ/RBAα) (ERβ [4]): moderate (3–10)
O=c1c(-c2ccc(O)cc2)coc2cc(O)ccc12 [Compound 5, daidzein] | 0.20 (0.01–0.55) | 59 ± 7% | 104±19% |  | 0.46 ± 0.05 µM | 54 ± 4% | 1300 ± 150 nM | 0.65 (0.04–2.11) | 100±13% | 50 ± 12 (Partial) ^* % of 0.1nM E2 | 0.38 ± 0.07 µM |  | Induction of luciferase gene transcription through ERβ, HEK:ERβ cells, Agonism at 1μΜ (% of 0.1nM E2) (ERβ [2]; compounds 1 μM, estradiol 0.1 nM, 18 h): 84 ± 8 (Full) % of 0.1nM E2; RBAβ (ERβ [3]; estradiol = 100, ref 27 (Halabalaki et al.)): 0.36 ± 0.09; ERα-dependent gene transcription agonist effect compared to the effect of 0.1 nM estradiol (ERα [5]; [7]): lower than
COc1cc(-c2coc3c(C4OC(CO)C(O)C(O)C4O)c(O)cc(O)c3c2=O)ccc1O (stereo not shown) [Compound 13, 8-C-glucopyranosyl-3΄-O-methylorobol] |  |  | 61±11% | 0.79±0.13 | 1.01 ± 0.27 µM | 15 ± 4% | 2340 ± 650 nM |  | 77±17% |  | 2.20 ± 0.18 µM | 3420 ± 910 nM | Induction of cell proliferation (MCF-7 cells) Agonism at 1μΜ, class (MCF-7 cells; compounds 1 μM, 72 h): Marginal (⩽10%); Induction of luciferase gene transcription, HEK:ERβ cells, Agonism at 1μΜ, class (ERβ [2]; compounds 1 μM, 18 h): Marginal (⩽10%); RBAα (ERα [6]): 0.12 ± 0.05; AlkP response lower than ERα-transcriptional response (relative AUC ratios) (Ishikawa cells): ~ 30%; RBAβ / RBAα (ERβ [4]; ERβ-binding selectivity): 1.00; RBAβ (ERβ [4]; RBA = (IC50 estradiol/IC50 compound) × 100, ES2 1 nM, estradiol set equal to 100): 0.12 ± 0.04; Induction of luciferase gene transcription, MCF-7:D5L cells, Agonism at 1μΜ, class (ERα [5]; compounds 1 μM, 18 h): Marginal (⩽10%)
C[C@]12CC[C@@H]3c4ccc(O)cc4C[C@@H](CCCCCCCCC[S+]([O-])CCCC(F)(F)C(F)(F)F)[C@H]3[C@@H]1CC[C@@H]2O (stereo partly shown) [ICI182,780, reference compound] |  |  |  |  |  |  |  |  |  |  |  |  | suppression of isoflavonoid cell proliferation effects (MCF-7 cells; [8]): fully suppressed; suppression of isoflavonoid-induced AlkP expression (Ishikawa cells; [8]): fully suppressed; proliferation of MDA-MB-231 cells (MDA-MB-231 cells): not affected
Oc1ccc(C2COc3cc(O)ccc3C2)cc1 (stereo not shown) [equol, 4',7-isoflavandiol] |  |  |  |  |  |  |  |  |  |  |  |  | suppression of LPS-induced TNFα mRNA expression and cytokine release (TNFα mRNA): dose-dependent suppression
